According to PubChem BioAssay (NCI):
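Tested at 5 concentrations; 48 h exposure; 96-well plates; endpoints linearly interpolated, else capped at highest concentration. TGI marks complete inhibition of growth.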

Columns and labels:
Test in all cases: DTP human tumour cell line panel, 48 h
[1] = test system: SNB-75 CNS
[2] = test system: RPMI-8226 leukemia
[3] = test system: MOLT-4 leukemia
[4] = test system: CCRF-CEM leukemia
[5] = test system: SNB-19 CNS
[6] = test system: OVCAR-3 ovarian
[7] = test system: SR leukemia
[8] = test system: RXF 393 renal
[9] = test system: OVCAR-4 ovarian
[10] = test system: EKVX NSCLC
[11] = test system: UO-31 renal
[12] = test system: SF-539 CNS
[13] = test system: SK-MEL-28 melanoma
[14] = test system: LXFL 529 NSCLC
[15] = test system: A498 renal
[16] = test system: HT29 colon
[17] = test system: NCI-H23 lung
[18] = test system: NCI-H226 lung
[19] = test system: NCI-H460 lung
[20] = test system: DMS 273 small cell lung
[21] = test system: TK-10 renal
[22] = test system: HL-60(TB) leukemia
[23] = test system: LOX IMVI melanoma
[24] = test system: MALME-3M melanoma
[25] = test system: DMS 114 small cell lung
[26] = test system: SK-OV-3 ovarian
[27] = test system: SW-620 colon
[28] = test system: HOP-92 NSCLC
[29] = test system: IGROV1 ovarian
[30] = test system: U251 CNS
[31] = test system: OVCAR-8 ovarian
[32] = test system: OVCAR-5 ovarian
[33] = test system: UACC-62 melanoma
[34] = test system: SNB-78 CNS
[35] = test system: ACHN renal
[36] = test system: DLD-1 colon
[37] = test system: M14 melanoma
[38] = test system: 786-0 renal
[39] = test system: COLO 205 colon
[40] = test system: KM12 colon
[41] = test system: SF-268 CNS
[42] = test system: SF-295 CNS
[43] = test system: HOP-18 NSCLC
[44] = test system: SN12C renal
[45] = test system: XF 498 CNS
[46] = test system: NCI-H522 lung
[47] = test system: HCC-2998 colon
[48] = test system: CAKI-1 renal
[49] = test system: M19-MEL melanoma
[50] = test system: HCT-116 colon
[51] = test system: K-562 leukemia
[52] = test system: SK-MEL-2 melanoma
[53] = test system: HOP-62 NSCLC
[54] = test system: A549 NSCLC
[55] = test system: SK-MEL-5 melanoma
[56] = test system: UACC-257 melanoma

Measured: TGI

CC(C)CC12CC3CCC(CNC1=O)C32C (stereo unspecified)
> 100 µM: all assays above
